The results in this text go back to patent publication US20070105215A1, “METHOD OF CULTURING STEM CELLS USING ABC TRANSPORTERS” (SAMSUNG ELECTRONICS CO., LTD., priority 2005, published 2007).

Data set [1] can be described thus: Coculture of A549 and K562 cells treated with Mitoxantrone, viability of A549 cells. The class given is cell-based. Particulars: human, A549 cells cocultured with K562 cells, A549 co-cultured with K562, Mitoxantrone 0.4 M.
The test system of data set [2] is A549 (human lug carcinoma cell ATCC no.CCL-185), having ABC transporters of the ABCG2 family.
Data set [3] can be described thus: Coculture of A549 and K562 cells treated with Mitoxantrone, viability of K562 cells. The class given is cell-based. Particulars: human, K562 cells cocultured with A549 cells, K562 coculture with A549, Mitoxantrone 0.4 M.
Data set [4] is described as follows: Cell activity/viability of K562 cells treated with Mitoxantrone (Sulforhodamine B kit), single culture. It is filed as cell-based. The settings on record: human, K562 cells (no ABC transporter); K562 single culture, Mitoxantrone 0.4 M, incubated for 96 hours. The procedure:
(§1) This was performed in the same manner as in Example 1, except that K562 (chronic myelogenous leukemia) cells having no ABC transporter were incubated in place of the A549 cells.
(§2) This was performed in the same manner as in Example 1, except that K562 cells having no ABC transporter were used in place of the A549 cells.

For data set [5], the system named is K562 (chronic myelogenous leukemia) cells having no ABC transporter. Described as above. It is filed as cell-based. The procedure:
as §1, §2

Molecules are shown by their SMILES. Read-outs that look alike come from different tables or passages of the source.

Regarding `O=C1c2c(O)ccc(O)c2C(=O)c2c(NCCNCCO)ccc(NCCNCCO)c21` [Mitoxantrone], the figures for the viability at 96 h, 0.4 M in data set [1], in data set [3] and in data set [4] were 92%, 17% and 28%, respectively. Besides, the cell activity in data set [2] (A549, Mitoxantrone concentration of 0.4M (FIG. 6)) is 98%; in data set [2] (A549, Mitoxantrone concentration of 1.0M (FIG. 6)), 86%; in data set [2] (A549, Mitoxantrone concentration of 2.6 (FIG. 6)), 68%; in data set [5] (K562, Mitoxantrone concentration of 0.1M (FIG. 6)), “about 60%”; in data set [5] (K562, Mitoxantrone concentration of 0.2M (FIG. 6)), “almost zero”.
